Drawing on ChEMBL document CHEMBL1132600 (J Med Chem, 1999), this text covers Ki for 13 compounds.

Some results are limits rather than exact numbers.

Sequence of Cannabinoid receptor 1 (P20272 whole entry): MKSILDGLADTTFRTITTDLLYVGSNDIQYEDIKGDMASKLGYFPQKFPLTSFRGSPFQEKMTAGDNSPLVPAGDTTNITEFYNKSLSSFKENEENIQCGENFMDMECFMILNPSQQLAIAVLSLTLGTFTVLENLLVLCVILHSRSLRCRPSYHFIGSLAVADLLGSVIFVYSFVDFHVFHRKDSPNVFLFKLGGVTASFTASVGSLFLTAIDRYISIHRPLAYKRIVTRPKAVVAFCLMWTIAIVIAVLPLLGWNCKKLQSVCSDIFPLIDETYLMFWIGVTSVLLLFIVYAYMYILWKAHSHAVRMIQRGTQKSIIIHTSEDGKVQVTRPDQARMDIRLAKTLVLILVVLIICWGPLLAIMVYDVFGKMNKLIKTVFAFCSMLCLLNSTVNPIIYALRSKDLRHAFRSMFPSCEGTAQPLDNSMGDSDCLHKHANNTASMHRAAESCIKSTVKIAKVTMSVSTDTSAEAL

The experiment has as its target Cannabinoid receptor 1 (Rattus norvegicus, UniProt P20272). Description: Tested for binding affinity to Cannabinoid receptor 1.
A word on the Ki: it is the dissociation constant of the complex between target and ligand, obtained from inhibition or displacement. A lower Ki goes with a stronger hold on the target. The compound `CCCCC/C=C\C/C=C\C/C=C\C/C=C\CCCC(=O)NC(C)(C)CO` showed a Ki of 151 nM. `CCCCC/C=C\C/C=C\C/C=C\C/C=C\CCCC(=O)NC[C@@H](C)O`: the inhibition constant (Ki) amounted to 119 nM. In turn, `CCCCC/C=C\C/C=C\C/C=C\C/C=C\CCC(C)(C)C(=O)NCCO` gave an inhibition constant Ki of 72.2 nM. The compound `CCCCCCCCCCCCCCCCCC(=O)NCCO` [N-(2-HYDROXYETHYL)STEARAMIDE] registered an inhibition constant (Ki) of 217 nM. Regarding `CCCCC/C=C\C/C=C\C/C=C\C/C=C\CCCC(=O)N(C)CCO`, the Ki turned out to be 4980 nM.

`CCCCC/C=C\C/C=C\C/C=C\C/C=C\CCCC(=O)NC1CCC(O)CC1` (stereo not drawn) yielded a Ki of 217 nM. In turn, `CCCCCCCC/C=C\CCCCCCCC(=O)NCCO` [OLEOYLETHANOLAMIDE] returned a Ki of over 10000 nM. Take `CCCCC/C=C\C/C=C\C/C=C\C/C=C\CCCC(N)=O` [ARACHIDONAMIDE]: the affinity corresponds to a Ki of 9600 nM. For `CCCCC/C=C\C/C=C\C/C=C\C/C=C\CCCC(=O)NC[C@H](C)O`, the Ki is 26 nM.

In turn, `CCCCCCCC/C=C\CCCCCCCC(=O)N[C@@H](C)CO` showed a Ki of over 10000 nM. In turn, `CCCCC/C=C\C/C=C\CCCCCCCC(=O)N[C@@H](C)CO` had a Ki of over 10000 nM. With `CCCCC/C=C\C/C=C\C/C=C\C/C=C\CCCC(=O)NCCF`, the Ki was found to be 8.6 nM. The result for `CCCCC/C=C\C/C=C\C/C=C\C/C=C\CCCC(=O)Nc1ccc(CO)cc1` reads over 3000 nM.
